Several values for one entry are separate records, joined by “and”; a condition that tells them apart may be missing. Equal entries are not always repeated.
What follows are molecules tested against T1, human GCGR (Homo sapiens, UniProt P47871) (assay: Cellular functional assay, cAMP readout (glucagon-stimulated cAMP, LANCE TR-FRET)). Conditions: HEK293 cells stably expressing full-length human GCGR; glucagon 100 pM; IC50 converted to Ki; read-out: Inhibition of cAMP Ki.
T1 construct: expressed in transfected cells; host or cells: HEK293 (hGluc-1HEK), pcDNA3.1, G418 selection
T1 sequence (P47871 26-477): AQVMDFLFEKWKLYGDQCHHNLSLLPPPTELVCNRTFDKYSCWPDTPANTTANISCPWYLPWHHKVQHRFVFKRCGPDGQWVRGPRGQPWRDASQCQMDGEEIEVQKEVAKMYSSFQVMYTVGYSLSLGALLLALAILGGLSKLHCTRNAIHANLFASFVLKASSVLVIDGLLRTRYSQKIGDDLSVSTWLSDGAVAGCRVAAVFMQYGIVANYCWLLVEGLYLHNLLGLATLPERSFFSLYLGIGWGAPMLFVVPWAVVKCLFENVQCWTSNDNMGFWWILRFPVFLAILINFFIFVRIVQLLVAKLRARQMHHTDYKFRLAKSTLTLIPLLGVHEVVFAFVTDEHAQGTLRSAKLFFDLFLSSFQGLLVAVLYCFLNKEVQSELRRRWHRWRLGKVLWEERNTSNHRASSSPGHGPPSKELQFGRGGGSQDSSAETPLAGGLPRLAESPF
Format: cell-based

**Q.** For `CC(C)CC(c1ccc(C(=O)NCCC(=O)O)cc1)n1ncc2cc(-c3cnc4ccccc4c3)ccc21` (stereo not drawn) [compound 46], which Ki is on record?
**A.** 750 nM

**Q.** How did the Ki turn out when `Cc1cc2nn(C(CC(C)C)c3ccc(C(=O)NCCC(=O)O)cc3)cc2cc1-c1ccc(C(F)(F)F)cc1Cl` (stereo not drawn) [Compound #95, 3-[[4-[1-[5-[2-Chloro-4-(trifluoromethyl)phenyl]-6-methyl-indazol-2-yl]-3-methyl-butyl]benzoyl]amino]propanoic acid] was run?
**A.** 52 nM

**Q.** How did the Ki turn out when `Cc1c(-c2ccc(C(F)(F)F)c(Cl)c2)ccc2nn(C(CC(C)C)c3ccc(C(=O)NCCC(=O)O)cc3)cc12` (stereo not drawn) [Compound #149, 3-(4-(1-(5-(3-Chloro-4-(trifluoromethyl)phenyl)-4-methyl-2H-indazol-2-yl)-3-methylbutyl)benzamido)propanoic acid] was run?
**A.** 70 nM

**Q.** `CC(C)CC(c1ccc(C(=O)NCCC(=O)O)cc1)n1cc2cc(-c3ccc(Cl)cc3Cl)ccc2n1` (stereo not drawn) [Compound #226, 3-(4-(1-(5-(2,4-Dichlorophenyl)-2H-indazol-2-yl)-3-methylbutyl)benzamido)propanoic acid] was tested. Which Ki did it give?
**A.** 242 nM

**Q.** How did the Ki turn out when `CC(C)CC(c1ccc(C(=O)NCCC(=O)O)cc1)n1ncc2cc(-c3cnn(C)c3)ccc21` (stereo not drawn) [compound 164] was run?
**A.** > 5200 nM

**Q.** How did the Ki turn out when `Cc1cc(Cl)ccc1-c1ccc2nn(C(CC3CCCCC3)c3ccc(C(=O)NCCC(=O)O)cc3)cc2c1` (stereo not drawn) [compound 153] was run?
**A.** 42 nM

**Q.** Which Ki does the source give for `Cc1cc(Cl)ccc1-c1cc2cn(C(CC(C)C)c3ccc(C(=O)NCCC(=O)O)nc3)nc2cc1Cl` (stereo not drawn) [Compound #140, 3-[[5-[1-[6-Chloro-5-(4-chloro-2-methyl-phenyl)indazol-2-yl]-3-methyl-butyl]pyridine-2-carbonyl]amino]propanoic acid] here?
**A.** 125 nM

**Q.** How did the Ki turn out when `CC(C)CC(c1ccc(C(=O)NCCC(=O)O)cc1)n1cc2cc(-c3cc4ccccc4s3)ccc2n1` (stereo not drawn) [compound 120] was run?
**A.** 58 nM

**Q.** Which Ki does the source give for `Cc1c(-c2ccc(C(F)(F)F)cc2Cl)ccc2c1cnn2[C@@H](CC(C)C)c1ccc(C(=O)NCCC(=O)O)cc1` [Compound #241, (S)-3-(4-(1-(5-(2-Chloro-4-(trifluoromethyl)phenyl)-4-methyl-1H-indazol-1-yl)-3-methylbutyl)benzamido)propanoic acid] here?
**A.** 42 nM

**Q.** For `O=C(O)CCNC(=O)c1ccc(C(CC2CCCCC2)n2ncc3cc(-c4ccc(C(F)(F)F)cc4)ccc32)cn1` (stereo not drawn) [compound 255], which Ki is on record?
**A.** 550 nM

**Q.** For `O=C(O)CCNC(=O)c1ccc(C(CCC(F)(F)C(F)(F)F)n2ncc3cc(-c4ccc(C(F)(F)F)cc4)ccc32)cc1` (stereo not drawn) [compound 100], which Ki is on record?
**A.** 550 nM

**Q.** For `CCCCCCC(c1ccc(C(=O)NCCC(=O)O)nc1)n1ncc2cc(-c3ccc(C(F)(F)F)cc3)ccc21` (stereo not drawn) [compound 193], which Ki is on record?
**A.** 155 nM

**Q.** How did the Ki turn out when `Cc1cc(Cl)ccc1-c1ccc2nn(C(CC(C)(C)C)c3ccc(C(=O)NCCC(=O)O)cc3)cc2c1` (stereo not drawn) [compound 195] was run?
**A.** 42 nM

**Q.** With `Cc1cc(Cl)ccc1-c1ccc2nn(C(CC(C)C)c3ccc(C(=O)NCCC(=O)O)nc3)cc2c1` (stereo not drawn) [Compound #252, 3-(5-(1-(5-(4-Chloro-2-methylphenyl)-2H-indazol-2-yl)-3-methylbutyl)picolinamido)propanoic acid] as the molecule, how does the Ki read?
**A.** 271 nM

**Q.** How did the Ki turn out when `CC(C)CC(c1ccc(C(=O)NCCC(=O)O)cc1)n1cc2cc(-c3cc4ccc(F)cc4s3)ccc2n1` (stereo not drawn) [compound 57] was run?
**A.** 170 nM

**Q.** `Cc1ccc2cc(-c3ccc4c(cnn4C(CC(C)C)c4ccc(C(=O)NCCC(=O)O)cc4)c3)sc2c1` (stereo not drawn) [compound 62] was tested. Which Ki did it give?
**A.** 230 nM

**Q.** For `O=C(O)CCNC(=O)c1ccc(C(CCC2CCC2)n2ncc3cc(-c4ccc(C(F)(F)F)cc4)ccc32)cc1` (stereo not drawn) [Compound #239, 3-(4-(3-Cyclobutyl-1-(5-(4-(trifluoromethyl)phenyl)-1H-indazol-1-yl)propyl)benzamido)propanoic acid], which Ki is on record?
**A.** 260 nM

**Q.** How did the Ki turn out when `CCOc1c(-c2ccc(C(F)(F)F)cc2C)ccc2c1cnn2C(CC(C)C)c1ccc(C(=O)NCCC(=O)O)nc1` (stereo not drawn) [Compound #197, 3-(5-(1-(4-Ethoxy-5-(2-methyl-4-(trifluoromethyl)phenyl)-1H-indazol-1-yl)-3-methylbutyl)picolinamido)propanoic acid] was run?
**A.** 15 nM

**Q.** With `CC(c1ccc(C(=O)NCCC(=O)O)cc1)n1ncc2cc(-c3ccc(C(C)(C)C)cc3)ccc21` (stereo not drawn) [Compound #68, 3-(4-(1-(5-(4-(tert-Butyl)phenyl)-1H-indazol-1-yl)ethyl)benzamido) propanoic acid] as the molecule, how does the Ki read?
**A.** 2800 nM

**Q.** How did the Ki turn out when `COc1c(-c2ccc(C(F)(F)F)cc2Cl)ccc2nn(C(CC(C)C)c3ccc(C(=O)NCCC(=O)O)nc3)cc12` (stereo not drawn) [Compound #178, 3-(5-(1-(5-(2-Chloro-4-(trifluoromethyl)phenyl)-4-methoxy-2H-indazol-2-yl)-3-methylbutyl)picolinamido)propanoic acid] was run?
**A.** 22 nM

**Q.** How did the Ki turn out when `Cc1c(-c2ccc(C(F)(F)F)cc2Cl)ccc2nn(C(CC(C)C)c3ccc(C(=O)NCCC(=O)O)cc3)cc12` (stereo not drawn) [Compound #18, 3-(4-(1-(5-(2-Chloro-4-(trifluoromethyl)phenyl)-4-methyl-2H-indazol-2-yl)-3-methylbutyl)benzamido)propanoic acid] was run?
**A.** 14 nM and 44 nM

**Q.** Which Ki does the source give for `COc1c(-c2ccc(C(F)(F)F)cc2Cl)ccc2nn(C(CC(C)C)c3ccc(C(=O)NCCC(=O)O)cc3)cc12` (stereo not drawn) [Compound #137, 3-(4-(1-(5-(2-Chloro-4-(trifluoromethyl)phenyl)-4-methoxy-2H-indazol-2-yl)-3-methylbutyl)benzamido)propanoic acid] here?
**A.** 22 nM

**Q.** Which Ki does the source give for `CC(C)CC(c1ccc(C(=O)NCCC(=O)O)cc1)n1ncc2cc(-c3ccc(C(C)(C)C)cc3)ccc21` (stereo not drawn) [Compound #1, 3-(4-(1-(5-(4-(tert-Butyl)phenyl)-1H-indazol-1-yl)-3-methylbutyl)benzamido)propanoic acid] here?
**A.** 90 nM and 159 nM

**Q.** With `Cc1cc(Cl)ccc1-c1ccc2nn(C(CCC3CCCCC3)c3ccc(C(=O)NCCC(=O)O)cc3)cc2c1` (stereo not drawn) [compound 247] as the molecule, how does the Ki read?
**A.** 37 nM

**Q.** How did the Ki turn out when `COc1ccc2cc(-c3ccc4nn(C(CC(C)C)c5ccc(C(=O)NCCC(=O)O)cc5)cc4c3)ccc2c1` (stereo not drawn) [compound 82] was run?
**A.** > 1300 nM

**Q.** With `CC(C)CC(c1ccc(C(=O)NCCC(=O)O)nc1)n1cc2c(C(F)(F)F)c(-c3ccc(C(F)(F)F)cc3Cl)ccc2n1` (stereo not drawn) [compound 235] as the molecule, how does the Ki read?
**A.** > 5200 nM

**Q.** For `Cc1c(-c2ccc(C(F)(F)F)cc2Cl)ccc2c1cnn2C(CC(C)C)c1ccc(C(=O)NCCC(=O)O)cc1` (stereo not drawn) [Compound #55, 3-(4-(1-(5-(2-Chloro-4-(trifluoromethyl)phenyl)-4-methyl-1H-indazol-1-yl)-3-methylbutyl)benzamido)propanoic acid], which Ki is on record?
**A.** 115 nM

**Q.** For `CCCCCC(c1ccc(C(=O)NCCC(=O)O)cc1)n1cc2cc(-c3ccc(C(C)(C)C)cc3)ccc2n1` (stereo not drawn) [compound 170], which Ki is on record?
**A.** 245 nM

**Q.** For `COc1c(-c2ccc(C(F)(F)F)cc2C)ccc2c1cnn2[C@H](CC(C)C)c1ccc(C(=O)NCCC(=O)O)cc1` [compound 145, (R)-3-(4-(1-(4-Methoxy-5-(2-methyl-4-(trifluoromethyl)phenyl)-1H-indazol-1-yl)-3-methylbutyl)benzamido)propanoic acid], which Ki is on record?
**A.** 1850 nM

**Q.** Which Ki does the source give for `COc1c(-c2ccc(C(F)(F)F)cc2C)ccc2c1cnn2C(CC(C)C)c1ccc(C(=O)NCCC(=O)O)nc1` (stereo not drawn) [Compound #213, 3-(5-(1-(4-Methoxy-5-(2-methyl-4-(trifluoromethyl)phenyl)-1H-indazol-1-yl)-3-methylbutyl)picolinamido)propanoic acid] here?
**A.** 75 nM

**Q.** `CC(C)CC(c1ccc(C(=O)NCCC(=O)O)cc1)n1ncc2c(Cl)c(-c3ccc(C(F)(F)F)cc3)ccc21` (stereo not drawn) [Compound #67, 3-(4-(1-(4-Chloro-5-(4-(trifluoromethyl)phenyl)-1H-indazol-1-yl)-3-methylbutyl)benzamido)propanoic acid] was tested. Which Ki did it give?
**A.** 245 nM

**Q.** How did the Ki turn out when `CC(c1ccc(C(=O)NCCC(=O)O)cc1)n1cc2cc(-c3ccc(C(C)(C)C)cc3)ccc2n1` (stereo not drawn) [Compound #161, 3-(4-(1-(5-(4-(tert-butyl)phenyl)-2H-indazol-2-yl)ethyl)benzamido) propanoic acid] was run?
**A.** 3200 nM

**Q.** How did the Ki turn out when `CCCCCCC(c1ccc(C(=O)NCCC(=O)O)nc1)n1cc2cc(-c3ccc(Cl)cc3C)ccc2n1` (stereo not drawn) [compound 203] was run?
**A.** 75 nM

**Q.** With `Cc1cc(Cl)ccc1-c1ccc2c(cnn2C(CC(C)C)c2ccc(C(=O)NCCC(=O)O)nc2)c1` (stereo not drawn) [Compound #14, 3-(5-(1-(5-(4-Chloro-2-methylphenyl)-1H-indazol-1-yl)-3-methylbutyl)picolinamido)propanoic acid] as the molecule, how does the Ki read?
**A.** 447 nM

**Q.** `Cc1cc2nn(C(CC(C)C)c3ccc(C(=O)NCCC(=O)O)nc3)cc2cc1-c1ccc(C(F)(F)F)cc1Cl` (stereo not drawn) [Compound #242, 3-[[5-[1-[5-[2-Chloro-4-(trifluoromethyl)phenyl]-6-methyl-indazol-2-yl]-3-methyl-butyl]pridine-2-carbonyl]amino]propanoic acid] was tested. Which Ki did it give?
**A.** 65 nM

**Q.** How did the Ki turn out when `CC(C)CC(c1ccc(C(=O)NCCC(=O)O)cc1)n1cc2cc(-c3ccsc3)ccc2n1` (stereo not drawn) [compound 51] was run?
**A.** 750 nM

**Q.** How did the Ki turn out when `Cc1cc(C(F)(F)F)ccc1-c1cc2cn(C(CC(C)C)c3ccc(C(=O)NCCC(=O)O)nc3)nc2cc1C` (stereo not drawn) [Compound #187, 3-[[5-[3-Methyl-1-[6-methyl-5-[2-methyl-4-(trifluoromethyl)phenyl]indazol-2-yl]butyl]pyridine-2-carbonyl]amino]propanoic acid] was run?
**A.** 30 nM

**Q.** `O=C(O)CCNC(=O)c1ccc(C(CC2CCCC2)n2cc3cc(-c4ccc(C(F)(F)F)cc4)ccc3n2)cn1` (stereo not drawn) [compound 188] was tested. Which Ki did it give?
**A.** 165 nM

**Q.** How did the Ki turn out when `O=C(O)CCNC(=O)c1ccc(C(CCC(F)(F)F)n2ncc3cc(-c4cc5ccccc5s4)ccc32)cc1` (stereo not drawn) [Compound #115, 3-[[4-[1-[5-(Benzothiophen-2-yl)indazol-1-yl]-4,4,4-trifluorobutyl]benzoyl]amino]propanoic acid] was run?
**A.** 140 nM

**Q.** Which Ki does the source give for `CC(C)CC(c1ccc(C(=O)NCCC(=O)O)cc1)n1ncc2cc(-c3ccc(Cl)cc3Cl)ccc21` (stereo not drawn) [Compound #9, 3-(4-(1-(5-(2,4-Dichlorophenyl)-1H-indazol-1-yl)-3-methylbutyl)benzamido)propanoic acid] here?
**A.** 190 nM

**Q.** Which Ki does the source give for `CC(C)CCn1cc(-c2ccc3c(cnn3C(CC(C)C)c3ccc(C(=O)NCCC(=O)O)cc3)c2)cn1` (stereo not drawn) [compound 123] here?
**A.** > 5200 nM

**Q.** For `Cc1cc(Cl)ccc1-c1ccc2c(cnn2C(CCC2CCCCC2)c2ccc(C(=O)NCCC(=O)O)cc2)c1` (stereo not drawn) [compound 157], which Ki is on record?
**A.** 250 nM

Source: patent publication US10000473B2, “Indazole derivatives useful as glucagon receptor antagonists” (Janssen Pharmaceutica NV, priority 2016, dated 2018)
